Reference: US20190031615A1, “3-ETHYL-3-PHENYLAZEPANE DERIVATIVES HAVING MULTIMODAL ACTIVITY AGAINST PAIN” (LABORATORIOS DEL DR. ESTEVE S.A., priority 2016, published 2019)
pKi: −log10 of the molar value.

System: σ1 receptor and μ-opioid receptor
Assay: Human σ1 receptor and human μ-opioid receptor radioligand assays (dual binding scale)
Parameters: key to μ and σ1 dual binding: +: Both Ki-μ and Ki-σ1>=500 nM; ++: One Ki <500 nM while the other Ki is >=500 nM; +++: Both Ki-μ and Ki-σ1 <500 nM; ++++: Both Ki-μ and Ki-σ1 <100 nM
Details: joint class for both Ki; σ1: [3H](+)-pentazocine, transfected HEK-293 membranes; μ: [3H]-DAMGO, transfected CHO-K1 cell membranes
Procedure: To investigate binding properties of test compounds to human […] receptor, transfected HEK-293 membranes and [^3H](+)-pentazocine (Perkin Elmer, NET-1056), as the radioligand, were used. The assay was carried out with 7 μg of membrane suspension, 5 nM of [^3H](+)-pentazocine in either absence or presence of either buffer or 10 μM Haloperidol for total and non-specific binding, respectively. Binding buffer contained Tris-HCl 50 mM at pH 8. Plates were incubated at 37° C. for 120 minutes. After the incubation period, the reaction mix was then transferred to MultiScreen HTS, FC plates (Millipore), filtered and plates were washed 3 times with ice-cold 10 mM Tris-HCL (pH7.4). Filters were dried and counted at approximately 40% efficiency in a MicroBeta scintillation counter (Perkin-Elmer) using EcoScint liquid scintillation cocktail
To investigate binding properties of test compounds to human μ-opioid receptor, transfected CHO-K1 cell membranes and [^3H]-DAMGO (Perkin Elmer, ES-542-C), as the radioligand, were used. The assay was carried out with 20 μg of membrane suspension, 1 nM of [^3H]-DAMGO in either absence or presence of either buffer or 10 μM Naloxone for total and non-specific binding, respectively. Binding buffer contained Tris-HCl 50 mM, MgCl2 5 mM at pH 7.4. Plates were incubated at 27° C. for 60 minutes. After the incubation period, the reaction mix was then transferred to MultiScreen HTS, FC plates (Millipore), filtered and plates were washed 3 times with ice-cold 10 mM Tris-HCL (pH 7.4). Filters were dried and counted at approximately 40% efficiency in a MicroBeta scintillation counter (Perkin-Elmer) using EcoScint liquid scintillation cocktail.

For CCC1(c2cccc(O)c2)CCCCN(CCN2CCOCC2)C1 (stereo not shown) [Example 8, 3-(3-ethyl-1-(2-morpholinoethyl)azepan-3-yl)phenol], the “μ and σ1 dual binding” value was “++”.

In the case of CCC1(c2cccc(O)c2)CCCCN(CCO)C1 (stereo not shown) [Example 10, 3-(3-ethyl-1-(2-hydroxyethyl)azepan-3-yl)phenol], the “μ and σ1 dual binding” value was “++”.

For CCOCCN1CCCCC(CC)(c2cccc(NS(C)(=O)=O)c2)C1 (stereo not shown) [Example 23, N-{3-[1-(2-Ethoxyethyl)-3-ethylazepan-3-yl]phenyl}methanesulfonamide], the pKi was ≤ 6.30.

In the case of CCC1(c2cccc(O)c2)CCCCN(CC(=O)N2CCOCC2)C1 (stereo not shown) [Example 16, 2-(3-ethyl-3-(3-hydroxyphenyl)azepan-1-yl)-1-morpholinoethanone], the pKi was ≤ 6.30.

In the case of CCOCCN1CCCCC(CC)(c2cccc(N)c2)C1 (stereo not shown) [Example 22, 3-[1-(2-Ethoxyethyl)-3-ethylazepan-3-yl]aniline], the pKi was ≤ 6.30.

For CCC1(c2cccc(OC)c2)CCCCN(CCN2CCN(C)CC2)C1 (stereo not shown) [Example 1, 3-Ethyl-3-(3-methoxyphenyl)-1-(2-(4-methylpiperazin-1-yl)ethyl)azepane], the pKi was ≤ 6.30.

For CCOCCN1CCCCC(CC)(c2cccc(O)c2)C1 (stereo not shown) [Example 11, 3-(1-(2-Ethoxyethyl)-3-ethylazepan-3-yl)phenol], the pKi was > 7.00.

CCC1(c2cccc(O)c2)CCCCN(CCN2CCN(c3ccccc3)CC2)C1 (stereo not shown) [Example 7, 3-(3-ethyl-1-(2-(4-phenylpiperazin-1-yl)ethyl)azepan-3-yl)phenol] was tested, and the “μ and σ1 dual binding” value was “++”.

With CCC1(c2cccc(O)c2)CCCCN(CCOC2CC2)C1 (stereo not shown) [Example 18, 3-(1-(2-cyclopropoxyethyl)-3-ethylazepan-3-yl)phenol] the “μ and σ1 dual binding” value was “++”.

For CCC1(c2cccc(O)c2)CCCCN(CCOc2cccnc2)C1 (stereo not shown) [Example 14, 3-(3-ethyl-1-(2-(pyridin-3-yloxy)ethyl)azepan-3-yl)phenol], the “μ and σ1 dual binding” value was “++”.

With CCC1(c2cccc(O)c2)CCCCN(CCN2CCN(C)CC2)C1 (stereo not shown) [Example 6, 3-(3-Ethyl-1-(2-(4-methylpiperazin-1-yl)ethyl)azepan-3-yl)phenol] the “μ and σ1 dual binding” value was “++”.

For CCC1(c2cccc(OC)c2)CCCCN(CCN2CCOCC2)C1 (stereo not shown) [Example 3, 4-(2-(3-Ethyl-3-(3-methoxyphenyl)azepan-1-yl)ethyl)morpholine], the pKi was ≤ 6.30.

CCOCCN1CCCC[C@@](CC)(c2cccc(O)c2)C1 (stereo in doubt) [Example 20, (S)-3-(1-(2-ethoxyethyl)-3-ethylazepan-3-yl)phenol] was tested, and the “μ and σ1 dual binding” value was “++”.

With CCC1(c2cccc(O)c2)CCCCN(CCOCC(C)(C)O)C1 (stereo not shown) [Example 19, 3-(3-ethyl-1-(2-(2-hydroxy-2-methylpropoxy)ethyl)azepan-3-yl)phenol] the “μ and σ1 dual binding” value was “++”.

In the case of CCOCCN1CCCCC(CC)(c2cccc(NS(=O)(=O)C(C)C)c2)C1 (stereo not shown) [Example 24, N-{3-[1-(2-Ethoxyethyl)-3-ethylazepan-3-yl]phenyl}propane-2-sulfonamide], the pKi was ≤ 6.30.

With CCC1(c2cccc(O)c2)CCCCN(CCOC)C1 (stereo not shown) [Example 17, 3-(3-ethyl-1-(2-methoxyethyl)azepan-3-yl)phenol] the “μ and σ1 dual binding” value was “++”.

With CCC1(c2cccc(OC)c2)CCCCN(CCN2CCCCC2)C1 (stereo not shown) [Example 4, 3-ethyl-3-(3-methoxyphenyl)-1-(2-(piperidin-1-yl)ethyl)azepane] the pKi was ≤ 6.30.

With CCC1(c2cccc(O)c2)CCCCN(CCOC(C)C)C1 (stereo not shown) [Example 12, 3-(3-ethyl-1-(2-isopropoxyethyl)azepan-3-yl)phenol] the pKi was > 6.30.

In the case of CCC1(c2cccc(O)c2)CCCCN(CC(=O)N2CCCCC2)C1 (stereo not shown) [Example 13, 2-(3-ethyl-3-(3-hydroxyphenyl)azepan-1-yl)-1-(piperidin-1-yl)ethanone], the “μ and σ1 dual binding” value was “++”.

For CCOCCN1CCCCC(CC)(c2cccc(OC)c2)C1 (stereo not shown) [Example 5, 1-(2-ethoxyethyl)-3-ethyl-3-(3-methoxyphenyl)azepane], the pKi was ≤ 6.30.

For CCC1(c2cccc(O)c2)CCCCN(CCN2CCCCC2)C1 (stereo not shown) [Example 9, 3-(3-ethyl-1-(2-(piperidin-1-yl)ethyl)azepan-3-yl)phenol], the pKi was > 6.30.

With CCOCCN1CCCC[C@](CC)(c2cccc(O)c2)C1 (stereo in doubt) [Example 21, (R)-3-(1-(2-ethoxyethyl)-3-ethylazepan-3-yl)phenol] the “μ and σ1 dual binding” value was “++”.
